# Columns and labels:
# PC-3 [1] = assay: Cytotoxicity against human PC3 cells assessed as growth inhibition at 100 uM after 24 to 48 hrs by MTT assay relative to control; format: functional; conditions: read-out: GI
# HL-60 [2] = assay: Cytotoxicity against human HL60 cells assessed as growth inhibition at 10 uM after 24 to 48 hrs by MTT assay relative to control; format: functional; conditions: read-out: GI
# HepG2 [3] = assay: Cytotoxicity against human HepG2 cells assessed as growth inhibition at 100 uM after 24 to 48 hrs by MTT assay relative to control; format: functional; conditions: read-out: GI
# HL-60 [4] = assay: Cytotoxicity against human HL60 cells assessed as growth inhibition at 30 uM after 24 to 48 hrs by MTT assay relative to control; format: functional; conditions: read-out: GI
# HCT-116 [5] = assay: Cytotoxicity against human HCT116 cells assessed as growth inhibition at 30 uM after 24 to 48 hrs by MTT assay relative to control; format: functional; conditions: read-out: GI
# PC-3 [6] = assay: cells; conditions: Homo sapiens, PC-3, 48 h
# Description: Cytotoxicity against human PC3 cells assessed as inhibition of cell proliferation after 48 hrs by MTT assay
# HepG2 [7] = assay: cells; conditions: Homo sapiens, HepG2, 48 h
# Description: Cytotoxicity against human HepG2 cells assessed as inhibition of cell proliferation after 48 hrs by MTT assay
# HepG2 [8] = assay: Cytotoxicity against human HepG2 cells assessed as growth inhibition at 30 uM after 24 to 48 hrs by MTT assay relative to control; format: functional; conditions: read-out: GI
# PC-3 [9] = assay: Cytotoxicity against human PC3 cells assessed as growth inhibition at 30 uM after 24 to 48 hrs by MTT assay relative to control; format: functional; conditions: read-out: GI
# HL-60 [10] = assay: cells; conditions: Homo sapiens, HL-60, 48 h
# Description: Cytotoxicity against human HL60 cells assessed as inhibition of cell proliferation after 48 hrs by MTT assay
# [11] = Cytotoxicity against human MIAPaCa2 cells assessed as growth inhibition at 30 uM after 24 to 48 hrs by MTT assay relative to control; format: functional; conditions: MIA PaCa-2, read-out: GI
# HCT-116 [12] = assay: cells; conditions: Homo sapiens, HCT-116, 48 h
# Description: Cytotoxicity against human HCT116 cells assessed as inhibition of cell proliferation after 48 hrs by MTT assay
# HepG2 [13] = assay: Cytotoxicity against human HepG2 cells assessed as growth inhibition at 10 uM after 24 to 48 hrs by MTT assay relative to control; format: functional; conditions: read-out: GI
# cells = conditions: Homo sapiens, MIA PaCa-2, 48 h
# Description: Cytotoxicity against human MIAPaCa2 cells assessed as inhibition of cell proliferation after 48 hrs by MTT assay
# HCT-116 [14] = assay: Cytotoxicity against human HCT116 cells assessed as growth inhibition at 10 uM after 24 to 48 hrs by MTT assay relative to control; format: functional; conditions: read-out: GI
# HCT-116 [15] = assay: Cytotoxicity against human HCT116 cells assessed as growth inhibition at 100 uM after 24 to 48 hrs by MTT assay relative to control; format: functional; conditions: read-out: GI
# HL-60 [16] = assay: Cytotoxicity against human HL60 cells assessed as growth inhibition at 100 uM after 24 to 48 hrs by MTT assay relative to control; format: functional; conditions: read-out: GI
# [17] = Cytotoxicity against human MIAPaCa2 cells assessed as growth inhibition at 10 uM after 24 to 48 hrs by MTT assay relative to control; format: functional; conditions: MIA PaCa-2, read-out: GI
# PC-3 [18] = assay: Cytotoxicity against human PC3 cells assessed as growth inhibition at 10 uM after 24 to 48 hrs by MTT assay relative to control; format: functional; conditions: read-out: GI
# [19] = Cytotoxicity against human MIAPaCa2 cells assessed as growth inhibition at 100 uM after 24 to 48 hrs by MTT assay relative to control; format: functional; conditions: MIA PaCa-2, read-out: GI
Structure (SMILES),inhibition of growth at 100 µM (PC-3 [1]) [%],inhibition of growth at 10 µM (HL-60 [2]) [%],inhibition of growth at 100 µM (HepG2 [3]) [%],inhibition of growth at 30 µM (HL-60 [4]) [%],inhibition of growth at 30 µM (HCT-116 [5]) [%],IC50 (PC-3 [6]) [µM],IC50 (HepG2 [7]) [µM],inhibition of growth at 30 µM (HepG2 [8]) [%],inhibition of growth at 30 µM (PC-3 [9]) [%],IC50 (HL-60 [10]) [µM],inhibition of growth at 30 µM [11] [%],IC50 (HCT-116 [12]) [µM],inhibition of growth at 10 µM (HepG2 [13]) [%],IC50 (cells) [µM],inhibition of growth at 10 µM (HCT-116 [14]) [%],inhibition of growth at 100 µM (HCT-116 [15]) [%],inhibition of growth at 100 µM (HL-60 [16]) [%],inhibition of growth at 10 µM [17] [%],inhibition of growth at 10 µM (PC-3 [18]) [%],inhibition of growth at 100 µM [19] [%]
COc1ccc(S(=O)(=O)N(c2ccccc2)c2ccnc3ccc(-c4ccc(O)cc4)cc23)cc1,61,63,86,87,39,65,20,78,39,< 10,81,50,20,< 10,10,79,89,63,15,86
O=S(=O)(c1ccc(F)cc1F)N(c1ccccc1)c1ccnc2ccc(-c3ccc(O)cc3)cc12,73,87,90,88,20,25,< 10,89,61,< 10,84,80,87,< 10,2,58,89,80,26,87
Cc1ccc(S(=O)(=O)N(c2ccccc2)c2ccnc3ccc(-c4ccc(O)cc4)cc23)cc1,72,78,97,90,34,45,19,90,43,< 10,88,53,13,< 10,21,82,92,80,20,89
O=S(=O)(c1ccc2c(c1)OCCO2)N(c1ccccc1)c1ccnc2ccc(-c3ccc(O)cc3)cc12,62,87,88,90,26,65,12,87,38,< 10,84,70,46,< 10,17,68,90,79,27,86
O=C(c1ccccc1F)N(c1ccccc1)c1ccnc2ccc(-c3ccc(O)cc3)cc12,88,55,87,93,32,22,18,84,65,< 10,90,52,22,15,26,88,94,36,27,90

# From ChEMBL document CHEMBL3593172, “4-(N-Phenyl-N'-substituted benzenesulfonyl)-6-(4-hydroxyphenyl)quinolines as inhibitors of mammalian target of rapamycin” (Bioorg Med Chem, 2015)
